Test results from ChEMBL document CHEMBL6127023, “3-Tetrazolyl-β-carboline derivatives as potential neuroprotective agents” (Bioorg Med Chem, 2024).
Active and inactive are the calls of the source. The calls are words filed in the database; no cut-off is given here.

Experiments:
SH-SY5Y [1] = assay: Cytotoxicity against human SH-SY5Y cells assessed as decrease in neutral red dye uptake at 10 uM incubated for 24 hrs relative to control; assay type: toxicity, cell-based; set-up: scale not given: the % may be the effect or the level left
SH-SY5Y [2] = assay: Cytotoxicity against human SH-SY5Y cells assessed as decrease in neutral red dye uptake at 25 uM incubated for 24 hrs relative to control; assay type: toxicity, cell-based; set-up: scale not given: the % may be the effect or the level left
SH-SY5Y [3] = assay: Cytotoxicity against human SH-SY5Y cells assessed as decrease in neutral red dye uptake at 50 uM incubated for 24 hrs relative to control; assay type: toxicity, cell-based; set-up: scale not given: the % may be the effect or the level left
SH-SY5Y [4] = assay: Cytotoxicity against human SH-SY5Y cells assessed as decrease in resazurin dye at 10 uM incubated for 24 hrs relative to control; assay type: toxicity, cell-based; set-up: scale not given: the % may be the effect or the level left
SH-SY5Y [5] = assay: Cytotoxicity against human SH-SY5Y cells assessed as decrease in resazurin dye at 25 uM incubated for 24 hrs relative to control; assay type: toxicity, cell-based; set-up: scale not given: the % may be the effect or the level left
SH-SY5Y [6] = assay: Cytotoxicity against human SH-SY5Y cells assessed as decrease in resazurin dye at 50 uM incubated for 24 hrs relative to control; assay type: toxicity, cell-based; set-up: scale not given: the % may be the effect or the level left
SH-SY5Y [7] = assay: Cytotoxicity against human SH-SY5Y cells at 5 uM incubated for 24 hrs; assay type: toxicity, cell-based
SH-SY5Y [8] = assay: Induction of ROS production in human SH-SY5Y cells at 50 uM incubated for 24 hrs by DCFH-DA probe based analysis relative to control; assay type: functional
SH-SY5Y [9] = assay: Neuroprotective effect in MPP+-induced cytotoxicity in human SH-SY5Y cells assessed as increase in neutral red dye uptake at 2.5 uM preincubated with 500 uM MPP+ for 30 mins followed by compound treatment for 24 hrs (reference value: 83.9 %); assay type: functional; details: time 24.5 hrs
SH-SY5Y [10] = assay: Neuroprotective effect in MPP+-induced cytotoxicity in human SH-SY5Y cells assessed as increase in neutral red dye uptake at 1 uM preincubated with 1000 uM MPP+ for 30 mins followed by compound treatment for 24 hrs (reference value: 76.2 %); assay type: functional; details: time 24.5 hrs
SH-SY5Y [11] = assay: Neuroprotective effect in MPP+-induced cytotoxicity in human SH-SY5Y cells assessed as increase in neutral red dye uptake at 2.5 uM preincubated with 1000 uM MPP+ for 30 mins followed by compound treatment for 24 hrs (reference value: 76.2 %); assay type: functional; details: time 24.5 hrs
SH-SY5Y [12] = assay: Neuroprotective effect in MPP+-induced cytotoxicity in human SH-SY5Y cells assessed as increase in neutral red dye uptake at 5 uM preincubated with 1000 uM MPP+ for 30 mins followed by compound treatment for 24 hrs (reference value: 76.2 %); assay type: functional; details: time 24.5 hrs
SH-SY5Y [13] = assay: Neuroprotective effect in Fe3+-induced cytotoxicity in human SH-SY5Y cells assessed as increase in neutral red dye uptake at 2.5 to 5 uM preincubated with 1000 uM FeNTA for 30 mins followed by compound treatment for 24 hrs; assay type: functional, cell-based; details: dose 2.5-5 µM, time 24.5 hrs
SH-SY5Y [14] = assay: Cytotoxicity against human SH-SY5Y cells upto 10 uM incubated for 24 hrs; assay type: toxicity, cell-based
SH-SY5Y [15] = assay: Neuroprotective effect in MPP+-induced cytotoxicity in human SH-SY5Y cells assessed as increase in neutral red dye uptake at 1 uM preincubated with 500 uM MPP+ for 30 mins followed by compound treatment for 24 hrs (reference value: 81.1 %); assay type: functional; details: time 24.5 hrs
SH-SY5Y [16] = assay: Neuroprotective effect in MPP+-induced cytotoxicity in human SH-SY5Y cells assessed as increase in neutral red dye uptake at 2.5 uM preincubated with 500 uM MPP+ for 30 mins followed by compound treatment for 24 hrs (reference value: 81.1 %); assay type: functional; details: time 24.5 hrs
SH-SY5Y [17] = assay: Neuroprotective effect in MPP+-induced cytotoxicity in human SH-SY5Y cells assessed as increase in neutral red dye uptake at 5 uM preincubated with 500 uM MPP+ for 30 mins followed by compound treatment for 24 hrs (reference value: 81.1 %); assay type: functional; details: time 24.5 hrs
SH-SY5Y [18] = assay: Neuroprotective effect in MPP+-induced cytotoxicity in human SH-SY5Y cells assessed as increase in neutral red dye uptake at 1 uM preincubated with 500 uM MPP+ for 30 mins followed by compound treatment for 24 hrs (reference value: 75 %); assay type: functional; details: time 24.5 hrs
SH-SY5Y [19] = assay: Neuroprotective effect in MPP+-induced cytotoxicity in human SH-SY5Y cells assessed as increase in neutral red dye uptake at 2.5 uM preincubated with 500 uM MPP+ for 30 mins followed by compound treatment for 24 hrs (reference value: 75 %); assay type: functional; details: time 24.5 hrs
SH-SY5Y [20] = assay: Neuroprotective effect in Fe3+-induced cytotoxicity in human SH-SY5Y cells assessed as increase in neutral red dye uptake at 1 to 10 uM preincubated with 500 to 1000 uM FeNTA for 30 mins followed by compound treatment for 24 hrs; assay type: functional, cell-based; details: dose 1-10 µM, time 24.5 hrs
SH-SY5Y [21] = assay: Cytotoxicity against human SH-SY5Y cells assessed as decrease in neutral red dye uptake upto 50 uM incubated for 24 hrs; assay type: toxicity, cell-based
SH-SY5Y [22] = assay: Neuroprotective effect in MPP+-induced cytotoxicity in human SH-SY5Y cells assessed as increase in neutral red dye uptake at 1 to 10 uM preincubated with 500 uM MPP+ for 30 mins followed by compound treatment for 24 hrs; assay type: functional, cell-based; details: dose 1-10 µM, time 24.5 hrs
SH-SY5Y [23] = assay: Cytotoxicity against human SH-SY5Y cells assessed as decrease in resazurin dye upto 50 uM incubated for 24 hrs; assay type: toxicity, cell-based
SH-SY5Y [24] = assay: Neuroprotective effect in MPP+-induced cytotoxicity in human SH-SY5Y cells assessed as increase in neutral red dye uptake at 1 uM preincubated with 500 uM MPP+ for 30 mins followed by compound treatment for 24 hrs (reference value: 83.3 %); assay type: functional; details: time 24.5 hrs
SH-SY5Y [25] = assay: Neuroprotective effect in MPP+-induced cytotoxicity in human SH-SY5Y cells assessed as increase in neutral red dye uptake at 2.5 uM preincubated with 500 uM MPP+ for 30 mins followed by compound treatment for 24 hrs (reference value: 83.3 %); assay type: functional; details: time 24.5 hrs
SH-SY5Y [26] = assay: Neuroprotective effect in MPP+-induced cytotoxicity in human SH-SY5Y cells assessed as increase in neutral red dye uptake at 5 uM preincubated with 500 uM MPP+ for 30 mins followed by compound treatment for 24 hrs (reference value: 83.3 %); assay type: functional; details: time 24.5 hrs
SH-SY5Y [27] = assay: Neuroprotective effect in MPP+-induced cytotoxicity in human SH-SY5Y cells assessed as increase in neutral red dye uptake at 1 uM preincubated with 1000 uM MPP+ for 30 mins followed by compound treatment for 24 hrs (reference value: 75.8 %); assay type: functional; details: time 24.5 hrs
SH-SY5Y [28] = assay: Neuroprotective effect in MPP+-induced cytotoxicity in human SH-SY5Y cells assessed as increase in neutral red dye uptake at 2.5 uM preincubated with 1000 uM MPP+ for 30 mins followed by compound treatment for 24 hrs (reference value: 75.8 %); assay type: functional; details: time 24.5 hrs
SH-SY5Y [29] = assay: Neuroprotective effect in MPP+-induced cytotoxicity in human SH-SY5Y cells assessed as increase in neutral red dye uptake at 5 uM preincubated with 1000 uM MPP+ for 30 mins followed by compound treatment for 24 hrs (reference value: 75.8 %); assay type: functional; details: time 24.5 hrs
SH-SY5Y [30] = assay: Neuroprotective effect in Fe3+-induced cytotoxicity in human SH-SY5Y cells assessed as increase in neutral red dye uptake at 1 uM preincubated with 500 uM FeNTA for 30 mins followed by compound treatment for 24 hrs (reference value: 81.4 %); assay type: functional; details: time 24.5 hrs

Molecule `Fc1ccc(-c2nc(-c3nnnn3Cc3ccccc3)cc3c2[nH]c2ccccc23)cc1` has an Activity (SH-SY5Y [1]) of 83.6%, an Activity (SH-SY5Y [2]) of 70.5% and an Activity (SH-SY5Y [3]) of 56.1%. It also gave an Activity (SH-SY5Y [4]) of 80%, an Activity (SH-SY5Y [5]) of 62.2% and an Activity (SH-SY5Y [6]) of 48.5%. The Activity (SH-SY5Y [7]) was “Non-Toxic”, the Activity (SH-SY5Y [8]) was 108.2% and the Activity (SH-SY5Y [9]) was 91.4%. For the same molecule, the Activity (SH-SY5Y [10]) was 84.8%, the Activity (SH-SY5Y [11]) was 83.4% and the Activity (SH-SY5Y [12]) was 83.2%. For the same molecule, the Activity (SH-SY5Y [13]) was “Active”.
For `CN(C)c1ccc(-c2nc(-c3nnnn3Cc3ccccc3)cc3c2[nH]c2ccccc23)cc1`, the Activity (SH-SY5Y [14]) was “Non-Toxic”, the Activity (SH-SY5Y [3]) was 80.5% and the Activity (SH-SY5Y [15]) was 97.8%. It also gave an Activity (SH-SY5Y [16]) of 92.3%, an Activity (SH-SY5Y [17]) of 85.8% and an Activity (SH-SY5Y [18]) of 90.3%. For the same molecule, the Activity (SH-SY5Y [19]) was 83.6% and the Activity (SH-SY5Y [20]) was “inactive”.
With `O=[N+]([O-])c1cccc(-c2nc(-c3nnnn3Cc3ccccc3)cc3c2[nH]c2ccccc23)c1` the Activity (SH-SY5Y [14]) was “Non-Toxic”, the Activity (SH-SY5Y [6]) was 92.6% and the Activity (SH-SY5Y [21]) was “Non-Toxic”. The Activity (SH-SY5Y [22]) was “inactive”.
With `Clc1ccccc1-c1nc(-c2nnnn2Cc2ccccc2)cc2c1[nH]c1ccccc12` the Activity (SH-SY5Y [14]) was “Non-Toxic”, the Activity (SH-SY5Y [2]) was 84% and the Activity (SH-SY5Y [3]) was 81.7%. The Activity (SH-SY5Y [23]) was “Non-Toxic” and the Activity (SH-SY5Y [22]) was “Active”.
`c1ccc(Cn2nnnc2-c2cc3c([nH]c4ccccc43)c(-c3ccccc3)n2)cc1` was tested, and the Activity (SH-SY5Y [1]) was 85.6%, the Activity (SH-SY5Y [2]) was 81.3% and the Activity (SH-SY5Y [3]) was 65.9%. For the same molecule, the Activity (SH-SY5Y [5]) was 74%, the Activity (SH-SY5Y [6]) was 59.3% and the Activity (SH-SY5Y [7]) was “Non-Toxic”. It also gave an Activity (SH-SY5Y [24]) of 91.4%, an Activity (SH-SY5Y [25]) of 92.1% and an Activity (SH-SY5Y [26]) of 93.5%. For the same molecule, the Activity (SH-SY5Y [27]) was 87.1%, the Activity (SH-SY5Y [28]) was 84.6% and the Activity (SH-SY5Y [29]) was 89.1%. It also gave an Activity (SH-SY5Y [30]) of 87.6%.
